Experimental data as given in paper PMC4405350, “From Broad-Spectrum Biocides to Quorum Sensing Disruptors and Mussel Repellents: Antifouling Profile of Alkyl Triphenylphosphonium Salts” (PLoS ONE, 2015).

What was measured:
Fusarium sp. = experiment: Marine-derived fungi growth inhibition (OD405); format: cell-based; conditions: Fusarium, 120 h, 5 days, 26 °C
Method: All the biological assays were run by triplicate.
Three strains of marine-derived fungi were kindly provided by Dr. Á. Trigos (University of Veracruz, Mexico). The strains were isolated from reef organisms collected from the Veracruz Reef System and identified as Aspergillus sp., Fusarium sp. and Alternaria sp..
Fungal strains were cultured in Potato-Dextrose Agar (PDA) supplemented with filtered seawater (FSW) (50% v/v) at 26 °C for 5 days prior to experiments. […] Briefly, fungal inocula were prepared by addition of 5 ml of sterile saline solution to the cultures. Gently swabbing released conidia. […] The plates were incubated for 5 days at 26 °C. The calculation of the half-maximal inhibitory concentrations (IC50) was performed using OD405 as endpoint.

[1] = test system: violacein production of C. violaceum CVO26; experiment: Quorum sensing bioassay: violacein production; format: cell-based, Chromobacterium violaceum; conditions: Chromobacterium violaceum, 18 h, read-out: IC50 (Violacein inhibition)
Method: The reporter strain C. violaceum CVO26 (CECT 5999) was used to screen the ability of the products to interfere with violacein production, a QS-regulated phenotype. C. violaceum CVO26 is a mini-Tn5 mutant that depends on an exogenous source of autoinducer (AI) (N-hexanoyl homoserine lactone, HHL) for violacein production. C. violaceum CVO26 was cultured in LB broth (Sigma-Aldrich) supplemented with 25 μg ml^-1 kanamycin. Inocula were prepared by dilution (1:100) of an overnight culture of the reporter strain [49]. One hundred microliters of inoculum with HHL (Sigma-Aldrich, 6 μM) or without the AI were added to 96-well plates containing 100 μl of the appropriate dilutions of the test products in LB. Thus, two sets of plates were prepared. One set of plates (without HHL) was used to evaluate the effect of the products on bacterial growth, whereas the other set of plates (with HHL) was used to evaluate their effect on violacein production. Both sets of plates were incubated at 30 °C with agitation (150 rpm) for 18 h.
Growth inhibition was quantified in the first batch of plates by re-suspending bacterial pellets and measuring the OD625. From the second batch of plates violacein was extracted and quantified. Briefly, the plates were dried overnight (60 °C) and violacein was re-solubilized by the addition of 200 μl of DMSO. The plates were shaken for 3 h and then the OD590 was determined.
To evaluate the effect of the alkyl triphenylphosphonium salts on QS-regulated phenotypes, an initial screening at the cut-off concentration of 100 μM was conducted with C. violaceum CVO26. The QS model of C. violaceum is relatively simple and consists of an acyl-homoserine lactone synthase (CviI) that produces the AI molecule N-hexanoyl homoserine lactone (HHL, strain ATCC 31532), or N-3-hydroxydecanoyl homoserine lactone (strain ATCC 12472) which is recognized by the cytoplasmic receptor CviR (Fig 4). The reporter strain CVO26 is a CviI::mini-Tn5 mutant of strain ATCC 31532 and thus recognizes HHL. CviR is a DNA-binding transcription factor that activates the expression of the genes encoding the production of violacein, the characteristic purple alkaloid that gives name to the species.
Indeed, the inhibitions observed in violacein production for long alkyl chains (10–18, 20) were clearly correlated to the biocidal effect exerted by these compounds, with ‘therapeutic ratios’ (IC50 for growth inhibition/IC50 for violacein inhibition) around 1, in general (Table 2). Note that, as the length of the hydrocarbon chain becomes shorter, this ratio increased (8–9). […] To evaluate these compounds in further detail, […] stock solutions were prepared […] to avoid the use of high concentrations of DMSO in the bioassays. […] Serial two-fold dilutions (500–3.9 μM) were assayed. Consequently, the highest amount of DMSO used in the assay was 0.25% (v/v). […] Growth inhibitory effects are only observed at 500 μM, particularly for compound 7 (Fig 6D).

[2] = test system: Vibrio alginolyticus CECT 521; experiment: Marine bacteria growth inhibition (broth microdilution, OD625); format: cell-based; conditions: Vibrio alginolyticus, CECT521; growth inhibition, 24 h, 30 °C, three replicates; read-out: IC50 V. alginolyticus
Method: (§1) All the biological assays were run by triplicate. […] For the active products, serial dilutions were performed to calculate the half-maximal inhibitory concentrations (IC50) or the minimal inhibitory concentrations (MIC). Unless otherwise stated, the test concentrations were 100, 50, 25, 10, 5, 2.5, 1, 0.5 and 0.1 μM. Dose-response curves were adjusted with GraphPad Prism 5 software using a four-parameter non-linear regression model.
(§2) Growth inhibition was assessed in Marine Broth (Conda) according to CLSI guidelines for broth microdilution susceptibility testing. The incubation time was 24 h and the incubation temperature was 30 °C.

Cobetia marina CECT 4278 = experiment: as above; format: cell-based; conditions: Cobetia marina, CECT4278; growth inhibition, 24 h, 30 °C, three replicates; read-out: IC50 C. marina
Method: as §1, §2

[3] = test system: Shewanella algae CECT 5021; experiment: as above; format: cell-based; conditions: Shewanella algae, CECT5021; growth inhibition, 24 h, 30 °C, three replicates; read-out: IC50 S. algae
Method: as §1, §2

[4] = test system: Vibrio anguillarum CECT 4347; experiment: as above; format: cell-based; conditions: Vibrio anguillarum, CECT4347; growth inhibition, 24 h, 30 °C, three replicates; read-out: IC50 V. anguillarum
Method: as §1, §2

[5] = test system: Pseudoalteromonas atlantica CECT 579; experiment: as above; format: cell-based; conditions: Pseudoalteromonas atlantica, CECT579; growth inhibition, 24 h, 30 °C, three replicates; read-out: IC50 P. atlantica
Method: as §1, §2

[6] = test system: Cellulophaga lytica CECT 5014; experiment: as above; format: cell-based; conditions: Cellulophaga lytica, CECT5014; growth inhibition, 24 h, 30 °C, three replicates; read-out: IC50 C. lytica
Method: as §1, §2

[7] = test system: Gayralia oxysperma spores; experiment: Macroalgal spore germination inhibition; format: cell-based; conditions: 6 days, 19±1 °C
Method: as §1
To evaluate the effect of the phosphonium salts on the germination of macroalgal spores, Gayralia oxysperma (Kützing) K.L.Vinogradova was selected as model organism. G. oxysperma (Ulotrichales, Chlorophyta) is a cosmopolitan member of the Ulvophyceae. Unlike Ulva species, which produce biflagellate male and female gametes, as well as quadriflagellate spores, G. oxysperma only produces biflagellate spores. This is an advantage as bioassays can be conducted straightforwardly without the need to distinguish between gamete-producing and zoospore-producing plants. […] Fresh fertile fragments were selected and placed in Petri dishes. Spores were then released in Von Stosch Solution (VSS) by the osmotic method. Bioassays were conducted in flat-bottom 96-well plates as described by Chambers and co-workers, with slight modifications. Each well was filled with 50 μl of the appropriate dilution of the products in VSS to which 50 μl of spore inoculum (ca. 2 x 10^5 spores ml^-1) were added. Plates were incubated at 19±1 °C for 6 days. After the incubation time, the bottom of each well was examined for the presence of germinated spores with an inverted microscope. A spore was considered as germinated when the germ tube was visible. The MIC was recorded as the lowest concentration inhibiting spore germination.

Row | SMILES | IC50 (Fusarium sp.) [µM] | IC50 [1] [µM] | IC50 [2] [µM] | IC50 (Cobetia marina CECT 4278) [µM] | IC50 [3] [µM] | IC50 [4] [µM] | IC50 [5] [µM] | IC50 [6] [µM] | MIC G. oxysperma (lowest concentration inhibiting spore germination) [7] [µM]
1 | CCCCCCCCCCCCCCCC[P+](c1ccccc1)(c1ccccc1)c1ccccc1 [Compound 16] | 9.3 | 4.2 | 16.9 | 9.9 | 5.4 | 5.3 | 6.8 | 1.5 | 50
2 | CCCCCCCCCCCCCCCCCC[P+](c1ccccc1)(c1ccccc1)c1ccccc1 [Compound 17] | 8.8 | 7 | > 100 | > 100 | 72.5 | 31.8 | 46.1 | 11.3 | >100
3 | CCCCCCCCCCCCCCCCCCC[P+](c1ccccc1)(c1ccccc1)c1ccccc1 [Compound 18] | 7.3 | 35.2 | > 100 | > 100 | > 100 | > 100 | > 100 | 5.3 | >100
4 | O=C(O)CCCCCCCCCC[P+](c1ccccc1)(c1ccccc1)c1ccccc1 [Compound 19] | > 100 | > 100 | > 100 | > 100 | > 100 | > 100 | > 100 | > 100 | >100
5 | c1ccc([P+](CCCCCCCCCCCC[P+](c2ccccc2)(c2ccccc2)c2ccccc2)(c2ccccc2)c2ccccc2)cc1 [Compound 20] | 5.6 | 16.7 | 93.5 | 7.3 | 2.2 | 8 | 0.8 | 1.1 | 5
